Results reported in patent EP0476645B1, “Calcium uptake inhibitors” (MERRELL DOW PHARMACEUTICALS INC., priority 1990, dated 1992).

Tested on: Rat PMNL
Assay: Measurement of intracellular calcium in fMLP-stimulated PMNL preloaded with Fura-2
Type: cell-based
Details: fMLP stimulus, preincubation with compound 15 minutes at 37°C, concentrations in figure 1
Protocol: Rat PMNL were obtained from exudates resulting from peritoneal injection of 6 mL of 8% sodium caseinate. Eighteen hours after injection rats were killed by carbon dioxide inhalation and the peritoneal cavity lavaged with Hank's balanced salt solution (HBSS). After concentration of the PMNL by centrifugation, contaminating erythrocytes were removed by hypotonic lysis. The PMNL were then washed twice by centrifugation (400 x g for 10 minutes) and resuspended in HBSS. Cell viability was greater than 90% by Trypan Blue exclusion and greater than 90% of the cells were PMNL by Wright-Giemsa stain.
Intracellular calcium levels were obtained using Fura-2 as fluorescent indicator (Grynkiewicz et al., 1985). Fura-2 was loaded into PMNL as the acetoxymethyl ester (Fura-2/AM) using the method of Korchak et al., (1988). Specifically, 1 X 10⁸ PMNL/mL were incubated in HBSS with 10 µM Fura-2/AM for 10 minutes at 37°C. The cells suspension was then diluted ten fold with HBSS and further incubated for another 20 minutes. The cells were then centrifuged (400 x g for 8 minutes at 25°C) and the PMNL (1 x 10⁷ cells/mL) resuspended in HBSS containing 1% bovine serum albumin. Cells were stored at room temperature and used within 3 hours.
Intracellular calcium level determinations were made using a dual wavelength spectrofluorometer (Photon Technology International, New Brunswick, NJ). Two mL of PMNL suspension (1 x 10⁷ cells/mL) were stirred magnetically at 37°C. Cells were preincubated with the compounds for 15 minutes at 37°C prior to activation. Where compounds were dissolved in DMSO and added directly, the DMSO never exceeded 0.3% in the final cell suspension. Total change in volume with addition of compounds or vehicle and stimuli never exceeded 3%. Intracellular calcium concentrations were calibrated by setting a maximum calcium level in the cells with the addition of 7 µM ionomycin to PMNL in HBSS containing 1% BSA. This was followed by treatment with 20 mM EGTA for 1 hour to obtain a minimum calcium level. […]

CN(C)c1ccc(C(=O)C#Cc2ccncn2)cc1 [MDL 102,387, 1-(4-dimethylaminophenyl)-3-(4-pyrimidinyl)-2-propyne-1-one]
suppression of the second wave of intracellular calcium changes: selective concentration-dependent suppression
